# Results from patent US10227331B2 (priority 2015, dated 2019).
# How the values were obtained:
# [1] = tested on: P. aeruginosa expressing IMP-1, efflux+ (MB9798); type: cell-based, Pseudomonas aeruginosa; conditions: for P. aeruginosa expressing IMP-1, efflux+ (MB9798) MITC95: imipenem at 2 μg/mL, in the presence of a class A, C, D serine β-lactamase inhibitor closely related to relebactam; for Efflux ratio: ratio MITC95 PA_9798/MITC95 PA_9799
# Source text: (§1) The strain background is Pseudomonas aeruginosa PAO1.
# [2] = target: VIM-1 (Pseudomonas aeruginosa (strain ATCC 15692 / DSM 22644 / CIP 104116 / JCM 14847 / LMG 12228 / 1C / PRS 101 / PAO1), UniProt A0A0F7KYQ8); experiment: biochemical; conditions: CCF2-FA substrate, 2 hours at 25° C
# In short: (§2)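 Two-hour, 25° C incubation of enzyme with inhibitor and CCF2-FA (7-hydroxycoumarin–cephalosporin–fluorescein). Fluorescence read-out; IC50 via 4-parameter fit.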
# [3] = target: NDM-1 (Klebsiella pneumoniae, UniProt C7C422); experiment: biochemical; type: biochemical; conditions: CCF2-FA substrate, 2 hours at 25° C; read-out: NDM-1 IC50
# In short: as §2
# [4] = target: IMP-1 (Serratia marcescens, UniProt P52699); experiment: biochemical; type: biochemical; conditions: CCF2-FA substrate, 2 hours at 25° C; read-out: IMP-1 IC50
# In short: as §2
# [5] = tested on: P. aeruginosa expressing IMP-1, efflux− (MB9799); experiment: Efflux: concentration of MBL inhibitor which restores susceptibility to imipenem; type: cell-based, Pseudomonas aeruginosa; conditions: imipenem at 2 μg/mL, in the presence of a class A, C, D serine β-lactamase inhibitor closely related to relebactam
# Source text: as §1
# [6] = tested on: Klebsiella pneumoniae expressing VIM-1 (IHMA599644); type: cell-based; conditions: VIM-1 (IHMA599644), with imipenem 1 μg/ml, 95% inhibition of bacterial growth
# In short: (§3)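 Colonies from overnight 35 °C blood-agar cultures were suspended in saline, diluted 1:100 into 1.1× CAMHB and exposed to test compound with or without imipenem at 1 μg/ml. After 22–24 h at 35 °C, absorbance was read to find the concentration restoring imipenem susceptibility.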
# [7] = tested on: Serratia marcescens expressing IMP-1 (CL5741); type: cell-based; conditions: IMP-1 (CL5741), with imipenem 1 μg/ml, 95% inhibition of bacterial growth
# In short: as §3
# [8] = tested on: Escherichia coli expressing NDM-1 (CLB30005, CLB30016); type: cell-based; conditions: NDM-1 (CLB30016), with imipenem 1 μg/ml, 95% inhibition of bacterial growth
# In short: as §3
# Chain of IMP-1 (P52699 whole entry, looked up, species assumed): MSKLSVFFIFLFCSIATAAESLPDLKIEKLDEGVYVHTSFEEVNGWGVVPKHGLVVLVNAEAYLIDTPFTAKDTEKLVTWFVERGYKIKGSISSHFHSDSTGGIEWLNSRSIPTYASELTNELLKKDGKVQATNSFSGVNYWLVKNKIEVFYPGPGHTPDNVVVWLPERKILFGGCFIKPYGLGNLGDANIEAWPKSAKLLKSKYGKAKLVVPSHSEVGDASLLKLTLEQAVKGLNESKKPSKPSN
# Chain of NDM-1 (C7C422 whole entry, looked up, species assumed): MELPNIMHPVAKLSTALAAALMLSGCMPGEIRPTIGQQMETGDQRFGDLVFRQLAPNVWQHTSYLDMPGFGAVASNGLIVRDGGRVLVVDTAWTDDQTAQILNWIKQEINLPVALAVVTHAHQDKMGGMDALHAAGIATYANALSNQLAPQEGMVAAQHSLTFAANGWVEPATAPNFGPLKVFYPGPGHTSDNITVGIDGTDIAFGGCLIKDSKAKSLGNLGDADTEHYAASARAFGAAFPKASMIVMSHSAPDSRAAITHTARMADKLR
SMILES,"P. aeruginosa expressing IMP-1, efflux+ (MB9798) MITC95 [1] [µM]",Efflux ratio [1],IC50 [2] [nM],IC50 [3] [nM],IC50 [4] [nM],"P. aeruginosa expressing IMP-1, efflux− (MB9799) MITC95 [5] [µM]",Klebsiella pneumoniae MITC95 [6] [µM],Serratia marcescens MITC95 [7] [µM],Escherichia coli MITC95 [8] [µM]
"CCCn1c(N)nc2c(-c3ccc(S(=O)(=O)C4CNC4)c(S(N)(=O)=O)c3-c3nn[nH]n3)cccc21 [Example 289, 3-(2-amino-1-propyl-1H-benzo[d]imidazol-4-yl)-6-(azetidin-3-ylsulfonyl)-2-(2H-tetrazol-5-yl)benzenesulfonamide]",12.5,8.00,0.407,0.12,0.299,1.563,3.125,1.563,0.3906
"NS(=O)(=O)c1c(S(=O)(=O)[C@H]2CCNC2)ccc(-c2cccc3nc(C(=O)O)[nH]c23)c1-c1nn[nH]n1 [Example 290, 7-(4-((S)-pyrrolidin-3-ylsulfonyl)-3-sulfamoyl-2-(2H-tetrazol-5-yl)phenyl)-1H-benzo[d]imidazole-2-carboxylic Acid]",6.25,4.00,0.5,0.472,2.96,1.563,3.125,3.125,3.125
"Nc1nc2c(-c3ccc(S(=O)(=O)[C@H]4CN[C@H](CO)C4)c(S(N)(=O)=O)c3-c3nn[nH]n3)cccc2[nH]1 [Example 291, 3-(2-amino-1H-benzo[d]imidazol-4-yl)-6-((3R,5S)-5-(hydroxymethyl)pyrrolidin-3-ylsulfonyl)-2-(2H-tetrazol-5-yl)benzenesulfonamide]",0.7813,1.00,0.54,0.195,0.959,0.7813,1.563,0.7813,0.7813
"Nc1nc2c(-c3ccc(S(=O)(=O)[C@H]4CN[C@H](CO)C4)c(S(N)(=O)=O)c3-c3nn[nH]n3)cccc2s1 [Example 292, 3-(2-aminobenzo[d]thiazol-4-yl)-6-((3R,5S)-5-(hydroxymethyl)pyrrolidin-3-ylsulfonyl)-2-(2H-tetrazol-5-yl)benzenesulfonamide]",1.563,1.00,0.332,0.161,0.27,1.563,3.125,1.563,3.125
"NC[C@H](N)CS(=O)(=O)c1ccc(-c2cccc3[nH]c(N)nc23)c(-c2nnn[nH]2)c1S(N)(=O)=O [Example 293, 3-(2-amino-1H-benzo[d]imidazol-4-yl)-6-((S)-2,3-diaminopropylsulfonyl)-2-(1H-tetrazol-5-yl)benzenesulfonamide]",0.7813,1.00,0.465,0.157,1.31,0.7813,1.563,1.563,0.3906
"C[C@H](N)CS(=O)(=O)c1ccc(-c2cccc3[nH]c(C(=O)O)nc23)c(-c2nn[nH]n2)c1S(N)(=O)=O [Example 294, 4-(4-((S)-2-aminopropylsulfonyl)-3-sulfamoyl-2-(2H-tetrazol-5-yl)phenyl)-1H-benzo[d]imidazole-2-carboxylic Acid]",1.563,1.00,0.184,0.0827,0.35,1.563,3.125,3.125,1.563
